The record followed here is publication PMC12040169 (PLOS Biology, 2025).

The term viability denotes a read-out of living cells in per cent, often relative to untreated cells.

The nature of the first series: in vitro. The conditions noted are these: human, hela cells, % viability.
For `CC(C)CC12CN3CCN(CC(C3)/C1=N\N=C1/C3CN4CCN(C3)CC1(CC(C)C)C4)C2` [CBK265036], the viability at 28.5 h, 10 µM was 99.1%.
On to `Cn1c(Cc2ccccc2)nnc1Sc1ccc(C(=O)O)cc1[N+](=O)[O-]` [CBK265038], for which the viability at 28.5 h, 10 µM was 99.6%.
For `COc1ccccc1CN(CN1C(=O)c2ccccc2C1=O)CN1C(=O)c2ccccc2C1=O` [CBK265039], the viability at 28.5 h, 10 µM was 94.9%.
Same read-out and setting: the same measure for `CC(C)Nc1nc(NC(C)C)nc(Oc2ccc(C=O)cc2)n1` [CBK265043]: 111%; for `O=C(NC(=S)Nc1ccccc1C(=O)O)c1ccc(Cl)cc1` [CBK265044]: 96.2%; for `O=C(CN1CCOCC1)Nc1ccc(NC(=O)CN2CCOCC2)cc1` [CBK265045]: 95.9%.
`CCN(CC)CCNc1cc(C)nc2c1C(=O)C(=O)C=C2N1CCCCC1` [CBK265049]: the viability at 28.5 h, 10 µM turned out to be 89.5%.
Still for that read-out and setting: in the case of `CC1CCc2c(sc3ncnc(SC(C)C(=O)OC4CCCCC4)c23)C1` (stereo not drawn) [CBK265050] it was 104%.
`O=C(O)c1cccc(NC(=S)NC(=O)C(c2ccccc2)c2ccccc2)c1` [CBK265053]: the viability at 28.5 h, 10 µM stood at 107%.
With `NCCNCCCCOc1ccc(Cl)c(Cl)c1` [CBK265059], the viability at 28.5 h, 10 µM was found to be 109%.
In the case of `O=C(CN1CCCC1)Nc1sc2c(c1C(=O)Nc1ccc(Br)cc1)CCC2` [CBK265060], the viability at 28.5 h, 10 µM worked out at 94.8%.
With `COc1ccc(NC(=O)c2c(NC(=O)CN3CCCC(C)C3)sc3c2CCC3)cc1` (stereo not drawn) [CBK265061], the viability at 28.5 h, 10 µM is 93.3%.
As for `C=CCOc1ccc(-c2nn(-c3ccccc3)cc2/C=C2/SC(=S)N(CC(=O)O)C2=O)c(C)c1` [CBK265062], the viability at 28.5 h, 10 µM turned out to be 95.8%.
Still for that read-out and setting: in the case of `COc1cccc(C(=O)NC(=S)Nc2ccc(C(=O)O)c(Cl)c2)c1` [CBK265065] it was 103%.
The same measure, in the same setting: the same measure for `Cc1cc(Cl)c(OCCNCCO)c(Br)c1` [CBK265066G]: 122%; for `Cc1cccc(OCC(=O)NC(=S)Nc2cccc(C(=O)O)c2C)c1` [CBK265067]: 96.3%.
`Cc1ccc(C(=O)NC(=S)Nc2ccc(C(=O)O)c(Cl)c2)cc1Cl` [CBK265068]: the viability at 28.5 h, 10 µM turned out to be 95%.
As for `COc1cc(/C=C2\N=C(c3cc(Cl)ccc3OC)OC2=O)ccc1OC(=O)c1ccccc1` [CBK265069], the viability at 28.5 h, 10 µM stood at 104%.
For `Cc1c(NC(=S)NC(=O)COc2ccc(Cl)cc2)cccc1C(=O)O` [CBK265070], the viability at 28.5 h, 10 µM was 103%.
Turning to `Cc1cc(Br)c2c(c1)C(O)(N1CCCCC1C)C(=O)N2` (stereo not drawn) [CBK265071], the viability at 28.5 h, 10 µM stood at 97.9%.
Still for that read-out and setting: in the case of `O=C(CN1CCOCC1)Nc1sc2c(c1C(=O)Nc1ccc(Br)cc1)CCC2` [CBK265073] it was 111%.
The same measure, in the same setting: in the case of `COc1ccc(C(=O)O)cc1NC(=S)NC(=O)c1ccc(-c2cc(Cl)ccc2Cl)o1` [CBK265074] it was 104%; in that of `CN1CCN(CCCOc2ccc(OCc3ccccc3)cc2)CC1` [CBK265077], 98.2%.
Consider `Cc1cc(Cl)c(OCCNCCN)c(Br)c1` [CBK265079], for which the viability at 28.5 h, 10 µM worked out at 91.5%.
On to `CCCSc1nnc(-c2ccccc2NC(=O)CC)c(O)n1` [CBK265081], for which the viability at 28.5 h, 10 µM worked out at 92.8%.
The same measure, in the same setting: the same measure for `Cc1cc(OCC(=O)NCCCN2CCOCC2)cc(C)c1Br` [CBK265082]: 99.9%; for `Cc1cccc(C(C)(C)C)c1OCCn1ccnc1` [CBK265084]: 109%.
For `COc1cccc(OC)c1OCCN1CCNCC1` [CBK265089G], the viability at 28.5 h, 10 µM amounted to 90.7%.
Still for that read-out and setting: the same measure for `Nn1c(SCC(=O)Nc2ccc3c(c2)oc2ccccc23)nnc1-c1ccc(Cl)cc1Cl` [CBK265090]: 91.7%; for `Cc1cccc(C(C)(C)C)c1OCCCCNCCN` [CBK265092G]: 110%; for `Cc1cc(OCC(=O)Nc2ccccc2CO)cc(C)c1Br` [CBK265094]: 88.2%.
Take `Cc1ccc(OCCCCNCCN)c(Br)c1` [CBK265099G]: the viability at 28.5 h, 10 µM stood at 85.1%.
Regarding `Cc1ccccc1N1C(=O)/C(=C/c2cn(Cc3ccccc3[N+](=O)[O-])c3ccccc23)SC1=S` [CBK265101], the viability at 28.5 h, 10 µM was found to be 101%.
On the same count and under the same terms, the same measure for `N/C(=N\OC(=O)c1cc(-c2ccccc2)nc2ccccc12)c1cccnc1` [CBK265106]: 101%; for `COc1ccc(-c2nn(-c3ccccc3)cc2/C=C2/SC(=S)N(Cc3ccccc3)C2=O)c(C)c1` [CBK265107]: 93.7%.
On to `COc1cc(NC(=O)CN2C(=O)c3ccc([N+](=O)[O-])cc3C2=O)c(C(=O)O)cc1OC` [CBK265109], for which the viability at 28.5 h, 10 µM stood at 97.7%.
Take `CCCC(=O)Nc1ccc(C(=O)Nc2ccccc2C(=O)O)cc1` [CBK265111]: the viability at 28.5 h, 10 µM came to 121%.
Still for that read-out and setting: in the case of `O=C(CN1C(=O)C2C3C=CC(C3)C2C1=O)OCC(=O)c1ccccc1` (stereo not drawn) [CBK265112] it was 100%.
Still for that read-out and setting: the same measure for `O=C(CCN1C(=O)C2C3CCC(C3)C2C1=O)OCC(=O)c1ccc(-c2ccccc2)cc1` (stereo not drawn) [CBK265113]: 95.1%; for `CCOC(=O)C(C)N1C(=O)S/C(=C/c2ccc(Oc3ccc([N+](=O)[O-])cn3)cc2)C1=O` (stereo not drawn) [CBK265114]: 93.9%.
Same read-out and setting: the same measure for `O=C(CN1C(=O)C2C3C=CC(C3)C2C1=O)NCc1ccco1` (stereo not drawn) [CBK265116]: 96.4%; for `COc1ccc(NC(=O)Nc2ccc3nc(C)c(C)nc3c2)cc1` [CBK265120]: 97.4%; for `O=[N+]([O-])c1cc(CN2CCCCC2)c2cccnc2c1O` [CBK265121]: 86.3%.
For the compound `CCn1cc(C(=O)O)c(=O)c2cc(F)c(N3CCN(S(=O)(=O)c4ccc(C)cc4)CC3)cc21` [CBK265122], the viability at 28.5 h, 10 µM worked out at 95.1%.
Still for that read-out and setting: in the case of `O=C(O)c1ccc(COc2ccc3ccccc3c2/C=C2/NC(=O)N(c3ccccc3)C2=O)cc1` [CBK265124] it was 101%; in that of `COC(=O)C1=C(C)N(c2cccc(C(F)(F)F)c2)C(=O)/C1=C\c1ccc(C(=O)O)cc1` [CBK265129], 92.8%.
In the case of `O=C(CSc1nnc(COc2ccccc2)n1-c1ccccc1)c1cccs1` [CBK265133], the viability at 28.5 h, 10 µM was found to be 99.3%.
The same measure, in the same setting: the same measure for `Cc1n[nH]c(O)c1C(c1ccc(OC(=O)c2c(F)cccc2F)cc1)c1c(C)n[nH]c1O` [CBK265136]: 101%.
The same measure, in the same setting: in the case of `COc1cc([N+](=O)[O-])ccc1NC(=O)CCN1C(=O)C2C3CCC(C3)C2C1=O` (stereo not drawn) [CBK265141] it was 99.3%.
With `COc1cccc(C(=O)COC(=O)c2cc(-c3ccccc3)nc3ccc(Br)cc23)c1` [CBK265143], the viability at 28.5 h, 10 µM was determined as 94.4%.
For the compound `COCCNC(=O)Nc1ccc2nc(-c3ccccn3)c(-c3ccccn3)nc2c1` [CBK265151], the viability at 28.5 h, 10 µM came out at 89.9%.
On the same count and under the same terms, in the case of `COc1cc2c(cc1NC(=O)CSc1nc3ccccc3[nH]1)oc1ccccc12` [CBK265153] it was 100%; in that of `COc1cc2c(cc1NC(=O)CSc1nc3ccccc3o1)oc1ccccc12` [CBK265154], 105%.
Regarding `CN(C)S(=O)(=O)N1CCN(c2ccc([N+](=O)[O-])c(NC3CC3)c2)CC1` [CBK265158], the viability at 28.5 h, 10 µM was 87%.
Same read-out and setting: in the case of `COc1ccc(Cl)cc1NC(=O)CN(C1CCCCC1)S(=O)(=O)c1ccccc1` [CBK265159] it was 108%.
Same read-out and setting: the same measure for `CCOc1cc(/C=C2/NC(=O)N(c3ccccc3)C2=O)cc(Cl)c1OCc1cccc(C(=O)O)c1` [CBK265160]: 92%; for `O=C(NCCO)/C(=C\c1ccccc1)NC(=O)c1ccc(I)cc1` [CBK265162]: 89.2%.
Same read-out and setting: the same measure for `C=CCOc1ccc(C(=O)C2=C(O)C(=O)N(Cc3cccnc3)C2c2cccnc2)cc1` (stereo not drawn) [CBK265167]: 98%.
`O=C(COC(=O)c1ccncc1)c1ccc(OC(=O)c2ccccc2)cc1` [CBK265169]: the viability at 28.5 h, 10 µM was found to be 87.3%.
Same read-out and setting: in the case of `C/C(=C1/SC(=S)N(CCC(=O)O)C1=O)c1ccc(O)cc1` [CBK265171] it was 102%.
As for `O=C(Nc1ccccc1C(=O)O)c1ccc(S(=O)(=O)N2CCCCC2)cc1` [CBK265174], the viability at 28.5 h, 10 µM came to 103%.
Regarding `O=C(Nc1ccccc1[N+](=O)[O-])c1ccc(Cl)c(S(=O)(=O)N2CCC(C(=O)O)CC2)c1` [CBK265180], the viability at 28.5 h, 10 µM was determined as 101%.
For the compound `O=C(O)c1ccc(NC(=O)C2CCN(S(=O)(=O)c3ccccc3)CC2)cc1` [CBK265181], the viability at 28.5 h, 10 µM stood at 110%.
In the case of `O=C(c1ccccc1)c1ccc(NC(=O)c2ccccc2F)c(NC(=O)c2ccccc2F)c1` [CBK265183], the viability at 28.5 h, 10 µM came out at 93.2%.
Still for that read-out and setting: in the case of `O=C(O)c1ccc(NS(=O)(=O)c2ccc(NC(=O)c3ccccc3Cl)cc2)cc1` [CBK265184] it was 93%.
On the same count and under the same terms, in the case of `O=C(O)c1cccc(NC(=O)c2cccc(S(=O)(=O)N3CCc4ccccc4C3)c2)c1` [CBK265187] it was 108%; in that of `O=C(OCc1ccc(Cl)cc1)c1ccc2c(c1)C(=O)N(c1cccc([N+](=O)[O-])c1)C2=O` [CBK265188], 109%; in that of `Cc1ccc(C(=O)Nc2cccc3cccnc23)cc1Br` [CBK265189], 102%.
On the same count and under the same terms, the same measure for `COc1ccccc1-c1coc2cc(OC(=O)c3c(C)oc4ccc(OC(C)=O)cc34)ccc2c1=O` [CBK265191]: 92%; for `O=C(O)C1N(Cc2ccccc2)CCCN1Cc1ccccc1` [CBK265196]: 111%.
Take `O=C1c2ccccc2C(=O)N1CN(Cc1ccc2c(c1)OCO2)CN1C(=O)c2ccccc2C1=O` [CBK265197]: the viability at 28.5 h, 10 µM came to 107%.

The same series, now with this note: human, hela cells, % viability, bulk resorufin, single well.
Turning to `O=C1NC(=S)N(c2ccccc2F)C(=O)/C1=C/NCc1ccco1` [CBK265126], the viability at 28.5 h, 10 µM is 86.6%.
As for `CCOC(=O)C1CCN(/C=C2/C(=O)NC(=S)N(c3ccccc3F)C2=O)CC1` [CBK265142], the viability at 28.5 h, 10 µM was 102%.
On to `O=C1NC(=O)C(=Cc2cccc(OC(F)(F)C(F)F)c2)C(=O)N1` [CBK265150], for which the viability at 28.5 h, 10 µM turned out to be 108%.
Still for that read-out and setting: the same measure for `O=C(Cn1cc(/C=C2\C(=O)NC(=S)N(c3cccc(F)c3)C2=O)c2ccccc21)Nc1ccccc1` [CBK265152]: 106%.
